The results in this text go back to patent publication US11939399B2, “Synthetic peptide sp4 and use thereof” (TAIAN CITY QIHANG BIOTECHNOLOGY CO., priority 2018, dated 2024).

A short description of series [1]: Animal acute toxicity test, maximal tolerable dose (MTD). Format: in vivo, ICR mice. The conditions noted are these: for Mice weight: 700 mg/kg BW dose group. The procedure: Embodiment 8 Animal Acute Toxicity Test—Maximal Tolerable Dose (MTD)
I. Experimental Conditions: GLP
1. Test animal: Healthy adult ICR mice, male, weight 19-20 g, n=10;
3. Test sample preparation method;
4. Administration route: tail vein injection in mice;
5. Dosing volume: 0.5 ml/time;
6. Frequency of administration: in accordance with FDA guidelines;
Acute toxicity refers to the toxic reaction produced by a drug within a certain period of time after a single dose or multiple-dose within 24 hours. In narrow sense, a single dose toxicity study is to investigate the acute toxic reactions after a single administration of a test substance. This guideline refers to single dose toxicity study in a broad sense, which can be obtained by single or multiple dosing within 24 hours;
II. Detection of Maximal Tolerable Dose (MTD)
Firstly, the working solutions at three concentrations that would not cause the death of test animals were prepared, and one animal was injected via tail veins (1.5 mL, by 3 times). The first dose was 1.5 mL of working solution with 1150 mg/kgBW, which was injected to mice by 3 times via tail veins within 24 hours. On the next day, if no death was found, the remaining 9 animals were injected with the same dose via tail veins (a total of n=10); if the first animal died, the dose would be reduced.

Series [2] in a line: Body weight and death of tumor-bearing nude mice in the in vivo efficacy test. The arrangement: species or system BALB/c nude mice. The conditions noted are these: each treatment group, 4 weeks intravenous administration. The procedure:
4-1. Nude mice were randomly divided into 5 groups: model group, positive control group, sp4 low-dose group, sp4 medium-dose group, and sp4 high-dose group, 6 mice each group (low-dose group: 4 mg/kgBW; medium-dose group: 8 mg/kgBW; high-dose group: 16 mg/kgBW; model group: injected with an equal volume of normal saline; positive control group: injected with paclitaxel at 10 mg/kgBW; administrated twice a week).
4-2. after divided into groups, animals were injected via tail veins at 4:00 pm every day; mice in the model group and the administration group were respectively injected with normal saline and drugs for 4 weeks, and the paclitaxel group was administered paclitaxel twice a week.
4-3, measured the tumor size and body weight on the day of grouping and every other day; TV=0.5*a*b^2, a represents long diameter, b represents short diameter.

Series [3] deals with subcutaneous human osteosarcoma MG-63 xenograft tumor. The series is described as follows: Detection of human osteosarcoma MG-63 cell cycle in nude mice. The conditions noted are these: positive control Paclitaxel group (10 mg/kgBW twice a week). Format: in vivo. The method, then:
(B) Detection of Human Osteosarcoma MG-63 Cell Cycle in Nude Mice
1. Preparation of Single Cell Suspension of Solid Tumor
1.1 Tumor block was washed 3 times with PBS buffer and cut into small blocks (1-2 mm), then washed 3 times with PBS, and transferred into a 50 ml centrifuge tube.
1.2 0.25% trypsin solution was added to digested at 37′C for 20-40 min, and gently shaken once every 5 min, to separate cells. 1.3 2 to 5 ml of serum-containing medium was added to terminate the trypsin digestion.
1.4 The suspension was stood for 2-3 min, and transferred to a new centrifuge tube, and filtered with a 200-mesh nylon mesh twice.
1.5 The filtered suspension was centrifuged at 1000 rpm for 5 min, and removed the supernatant.
1.6 5 ml of PBS buffer was added to centrifuge again, and removed the supernatant.
1.7 1 to 2 ml of culture solution was added according to the amount of cells, and the cells were counted for standby.
2. Detection of Cell Cycle
1) The cell culture solution was collected into a centrifuge tube for standby. […]
5) Flow cytometry detection and analysis: the red fluorescence was detected by a flow cytometer at the excitation wavelength of 488 nm, and the light scattering was detected also. […]

Values joined by “and” are separate entries in the source; they are usually repeats but may differ in a detail not shown here. Equal values may be shown once. “Also recorded” adds a separate entry of the source. Ends that are not written are not given here.

Consider FLFSLIPSAISG [sp4], for which the Mice weight is 20.5 g and 20.2 g (2×) and 20.6 g and 20.7 g and 20.4 g and 20.9 g and 20.1 g and 20 g and 20.3 g in series [1] (individual mice No. 1-10, 2018 May 15); 20.5 g (3×) and 20.7 g and 21.3 g and 21.2 g and 20.8 g and 20.4 g (2×) and 21.5 g in series [1] (individual mice No. 1-10, 2018 May 16); 21.1 g (3×) and 21.7 g and 21.3 g and 21.4 g and 20.8 g (2×) and 22.2 g and 21.2 g in series [1] (individual mice No. 1-10, 2018 May 17); 21.5 g (3×) and 22.1 g and 21.9 g (3×) and 21.7 g and 22.7 g and 21.1 g in series [1] (individual mice No. 1-10, 2018 May 18); 21.9 g and 21.6 g and 22.6 g (2×) and 22.5 g (3×) and 21.8 g (2×) and 23 g in series [1] (individual mice No. 1-10, 2018 May 19); 22.3 g and 22.8 g (5×) and 22.4 g and 23.7 g and 22.9 g and 22.5 g in series [1] (individual mice No. 1-10, 2018 May 20). Also, the Mice weight in series [1] (individual mice No. 1-10, 2018 May 21) is 22.7 g and 22.9 g (2×) and 23.5 g and 23.1 g (3×) and 24.1 g and 23.3 g and 23.4 g; in series [1] (individual mice No. 1-10, 2018 May 22), 23.3 g and 23.5 g (2×) and 24.1 g and 23.6 g and 23.2 g and 24.8 g and 23.8 g (2×) and 23.4 g; in series [1] (individual mice No. 1-10, 2018 May 23) it was 24.0 g and 24.1 g (2×) and 24.8 g and 24.2 g (2×) and 23.7 g and 25.1 g and 24.5 g and 24.4 g; in series [1] (individual mice No. 1-10, 2018 May 24), 24.7 g (4×) and 25.2 g and 23.9 g and 25.6 g and 25.1 g and 24.8 g and 24.6 g; in series [1] (individual mice No. 1-10, 2018 May 25), 25.3 g and 25.5 g (2×) and 25.8 g and 25.1 g (3×) and 24.8 g and 26.1 g and 24.9 g; in series [1] (individual mice No. 1-10, 2018 May 26), 25.8 g and 25.9 g (3×) and 26.3 g and 25.6 g (2×) and 25.2 g and 26.5 g and 25.5 g. Further, the Mice weight was 26.1 g and 26.2 g (2×) and 26.8 g and 26.3 g (2×) and 26.4 g and 27.2 g and 26 g and 25.8 g in series [1] (individual mice No. 1-10, 2018 May 27); 27.2 g and 27.1 g and 27.3 g and 26.9 g and 26.8 g (3×) and 27.7 g and 26.4 g and 26.6 g in series [1] (individual mice No. 1-10, 2018 May 28); 28.1 g and 27.9 g and 28.5 g and 27.2 g and 27.6 g and 27.5 g (2×) and 28.3 g and 27.1 g (2×) in series [1] (individual mice No. 1-10, 2018 May 29). For the same compound, the “Survival Rate %” value in series [1] (700 mg/kg, 3 times/9 h, n=10) is 100%. Further, the “toxic reactions and deaths within 2 weeks after administration” value in series [1] (ICR mice, 700 mg/kgBW intravenous) is “no toxic reactions and deaths occurred; also recorded: no behavioral abnormalities and deaths were observed”. In addition, the “toxic reactions and deaths within 24 hours” value in series [1] (ICR mice, 700 mg/kgBW intravenous, three times within 24 h) is “no toxic reactions and deaths occurred; also recorded: no toxic reaction and death were observed”. Moreover, in series [1] (individual animals No. 1-10, 700 mg/kg, 3 times/9 h), the Survival or not result is listed as “Survival”. Also, in series [1] (male, mouse, in vivo, iv, ICR mice, tail vein injection, administered by three times within 24 h), the MTD – broadly, the largest dose that counted as tolerated – at 336 h is 700 mg/kg. In series [2], the “death in the in vivo efficacy test” value is recorded as “no death occurred”. Also, the “weight gain of tumor-bearing nude mice vs control group” value in series [2] (P>0.05) is recorded as “not significantly different”.

As to `CC(=O)O[C@H]1C(=O)[C@@]2(C)[C@H]([C@H](OC(=O)c3ccccc3)[C@]3(O)C[C@H](OC(=O)[C@H](O)[C@@H](NC(=O)c4ccccc4)c4ccccc4)C(C)=C1C3(C)C)[C@]1(OC(C)=O)CO[C@@H]1C[C@@H]2O` [Paclitaxel], the “cell cycle effect in subcutaneous human osteosarcoma xenograft tumor models” value in series [3] is given as “significant G1 phase arrest”.
